Assay results taken from PMC10275482 (ACS Omega, 2023).
Where two headings read alike, the source gives them in different places.

Legend:
SARS-CoV-2 [1] = conditions: cited from earlier work; for EC50: read-out: EC50 in Vero cells
SARS-Cov-2 PL^pro = SARS-Cov-2 PL^pro (Severe acute respiratory syndrome coronavirus 2, UniProt P0DTD1); experiment: biochemical
[2] = tested on: SARS-CoV-2 (isolate USA WA1/2020); experiment: microbe, parasite or virus in culture; format: cell-based; conditions: Severe acute respiratory syndrome coronavirus 2, Calu-3, 48 h, read-out: IC50 (infection)
SARS-CoV-2 [3] = conditions: Vero cells, cited from earlier work
in vitro = conditions: human
SARS-CoV-2 [4] = conditions: cited from earlier work
SARS-CoV-2 [5] = conditions: read-out: A549-ACE2 IC50; A549-ACE2 cells; cited from earlier work
PL^pro = conditions: read-out: PL^pro IC50; cited from earlier work
SARS-Cov-2 M^pro = SARS-Cov-2 M^pro (Severe acute respiratory syndrome coronavirus 2, UniProt P0DTD1); experiment: biochemical

Q: For `CC(C)(C)NC(=O)N[C@H](C(=O)N1C[C@H]2[C@@H]([C@H]1C(=O)NC(CC1CCC1)C(=O)C(N)=O)C2(C)C)C(C)(C)C` (some centres unmarked) [boceprevir], which EC50 (SARS-CoV-2 [1]) is on record?
A: 1.31 µM

Q: Which IC50 (SARS-Cov-2 PL^pro) does the source give for `COc1cc(Nc2c(C#N)cnc3cc(OCCCN4CCN(C)CC4)c(OC)cc23)c(Cl)cc1Cl` [bosutinib] here?
A: 4.23 ± 0.28 µM

Q: And the IC50 [2]?
A: 5.26 µM

Q: What about the “cell toxicity in Calu-3 cells (in words)” value (Calu-3 cells) of the same compound?
A: demonstrated cell toxicity

Q: What about the “SI (anti-SARS-CoV-2 entry activity)” value (SARS-CoV-2 [3]) of the same compound?
A: 7.08

Q: What about the EC50 (SARS-CoV-2 [3]; read-out: anti-SARS-CoV-2 entry activity EC50) of the same compound?
A: 2.45 µM

Q: What about the CC50 (in vitro) of the same compound?
A: 6.06 µM

Q: For `C[N+](C)(C)CCOP(=O)(O)OP(=O)([O-])OC[C@H]1O[C@@H](n2ccc(N)nc2=O)[C@H](O)[C@@H]1O` [citicoline], which IC50 (SARS-Cov-2 PL^pro) is on record?
A: 1.35 ± 0.27 µM

Q: Which IC50 (SARS-Cov-2 PL^pro) does the source give for `C[C@@H](Oc1cc(-c2cnn(C3CCNCC3)c2)cnc1N)c1c(Cl)ccc(F)c1Cl` [crizotinib] here?
A: 3.81 ± 0.04 µM

Q: And the IC50 [2]?
A: 16.3 µM

Q: And the “cell toxicity in Calu-3 cells (in words)” value (Calu-3 cells)?
A: demonstrated cell toxicity

Q: What about the CC50 (in vitro) of the same compound?
A: 5.09 µM

Q: What does the source list for `COc1cc2ncnc(Nc3ccc(F)c(Cl)c3)c2cc1NC(=O)/C=C/CN1CCCCC1` [dacomitinib]?
A: IC50 (SARS-Cov-2 PL^pro): 3.33 ± 0.06 µM; IC50 (SARS-CoV-2 [4]; read-out: IC50 against SARS-CoV-2 in Calu-3 cells): 0.04 µM

Q: Which EC50 (SARS-CoV-2 [1]) does the source give for `OCCN(CCO)c1nc(N2CCCCC2)c2nc(N(CCO)CCO)nc(N3CCCCC3)c2n1` [dipyridamole] here?
A: ~0.1 µM

Q: Which IC50 (SARS-Cov-2 PL^pro) does the source give for `CCCCCc1c2c(cc(O)c1C(=O)O)OC(=O)c1c(cc(OC)cc1C(=O)CCCC)O2` [lobaric acid] here?
A: 10 ± 1.11 µM

Q: Which IC50 (SARS-Cov-2 PL^pro) does the source give for `C=CC(=O)Nc1cccc(Oc2nc(Nc3ccc(N4CCN(C)CC4)cc3)nc3ccsc23)c1` [olmutinib] here?
A: 0.54 ± 0.04 µM

Q: What about the IC50 [2] of the same compound?
A: 9.76 µM

Q: And the “cell toxicity in Calu-3 cells (in words)” value (Calu-3 cells)?
A: demonstrated cell toxicity

Q: What about the CC50 (in vitro) of the same compound?
A: 12.5 µM

Q: Which IC50 (SARS-CoV-2 [5]) does the source give for `COc1ccc2nc3cc(Cl)ccc3c(Nc3cc(CN4CCCC4)c(O)c(CN4CCCC4)c3)c2n1` [pyronaridine tetraphosphate] here?
A: 0.23 µM

Q: What about the IC50 (PL^pro) of the same compound?
A: 1.8 µM

Q: Which results are given for `O=C(c1ccc(OCCN2CCCCC2)cc1)c1c(-c2ccc(O)cc2)sc2cc(O)ccc12` [raloxifene]?
A: IC50 (SARS-Cov-2 PL^pro): 3.28 ± 0.29 µM; IC50 (SARS-CoV-2 [1]; read-out: IC50 against SARS-CoV-2 in Vero cells): 3.9 µM; IC50 (SARS-CoV-2 [1]; read-out: IC50 in Vero, Vero cells): 5.9 µM; SI in Calu-3 cells (SARS-CoV-2 [4]): 2.7; IC50 (SARS-CoV-2 [4]; read-out: IC50 in Calu-3 cells): 9 µM; IC50 (SARS-Cov-2 M^pro): 42.8 ± 6.7 µM

Q: For `CC1(C)CCC2=C(O1)c1ccccc1C(=O)C2=O` [β-lapachone], which IC50 (SARS-Cov-2 PL^pro) is on record?
A: 5.3 ± 0.29 µM
